Assay results taken from paper PMC9112895, “Selective Inhibition of Plasmodium falciparum ATPase 6 by Artemisinins and Identification of New Classes of Inhibitors after Expression in Yeast” (Antimicrobial Agents and Chemotherapy, 2022).

How the values were obtained:
SERCA1a [1] = target: T1, SERCA1a (Oryctolagus cuniculus, UniProt P04191); test: Yeast whole-cell growth inhibition assay, K667Δpdr5[SERCA1a]; assay type: cell-based, rabbit; parameters: containing the SERCA1a coding region from rabbit skeletal fast-twitch muscle; expressed in transfected cells; host or cells: Saccharomyces cerevisiae K667 and K667Δpdr5::HIS
T1 sequence (P04191 other isoform, or with tags, fused parts or gaps): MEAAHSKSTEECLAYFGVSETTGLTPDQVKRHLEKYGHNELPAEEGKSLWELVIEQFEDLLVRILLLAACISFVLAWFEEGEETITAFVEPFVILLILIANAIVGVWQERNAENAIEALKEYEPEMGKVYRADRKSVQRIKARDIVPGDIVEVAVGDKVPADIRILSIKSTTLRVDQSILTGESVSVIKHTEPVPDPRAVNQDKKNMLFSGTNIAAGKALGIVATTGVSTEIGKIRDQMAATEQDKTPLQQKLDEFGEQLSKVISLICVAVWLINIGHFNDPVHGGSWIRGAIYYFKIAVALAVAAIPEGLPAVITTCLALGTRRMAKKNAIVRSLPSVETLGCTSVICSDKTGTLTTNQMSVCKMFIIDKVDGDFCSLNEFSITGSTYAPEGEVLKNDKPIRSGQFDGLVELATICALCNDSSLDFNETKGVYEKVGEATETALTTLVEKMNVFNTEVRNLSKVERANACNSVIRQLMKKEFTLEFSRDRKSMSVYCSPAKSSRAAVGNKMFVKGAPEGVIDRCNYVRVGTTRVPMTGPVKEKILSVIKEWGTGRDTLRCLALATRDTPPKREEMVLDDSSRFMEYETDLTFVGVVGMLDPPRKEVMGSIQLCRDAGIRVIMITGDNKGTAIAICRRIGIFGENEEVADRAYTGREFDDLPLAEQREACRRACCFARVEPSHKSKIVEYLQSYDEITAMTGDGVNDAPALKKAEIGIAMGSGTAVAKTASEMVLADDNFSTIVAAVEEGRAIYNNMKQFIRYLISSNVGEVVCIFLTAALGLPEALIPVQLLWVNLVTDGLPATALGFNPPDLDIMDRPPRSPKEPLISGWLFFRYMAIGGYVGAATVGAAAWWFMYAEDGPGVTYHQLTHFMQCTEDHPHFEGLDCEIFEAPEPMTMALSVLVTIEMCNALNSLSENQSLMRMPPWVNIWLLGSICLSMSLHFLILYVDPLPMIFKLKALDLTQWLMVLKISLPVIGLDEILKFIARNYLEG
Description: (§1) Yeast transformations were performed using the method described by Gietz and Schiestl ([48]), and transformants were selected by an uracil auxotrophic marker. Transformations were confirmed by colony PCR. Both K667 and K667Δpdr5::HIS were transformed with the following plasmids: pUGpd plasmid as a vector-only control (derived from pRS316 [49]); br434 plasmid (derived from pRS316 [50]) containing the SERCA1a coding region from rabbit skeletal fast-twitch muscle (pbr434-SERCA1a); and pUGpd containing the yeast-optimized coding region of PfATP6 from Plasmodium falciparum (pUGpd-PfATP6). Site-directed mutagenesis was performed on the SERCA1a coding region to produce the mutation E255L in the protein. Mutations were also introduced into the PfATP6 coding region to produce mutations L263E, A623E, and S769N and the double mutation A623E/S769N ([13]).
(§2) The screening assay used here was developed from the protocol used by Pulcini et al. ([13]). A single colony of the yeast strain to be screened was picked and grown in 5 mL of selective medium until stationary phase was reached. The culture was diluted 100-fold in ampicillin-supplemented yeast extract-peptone-dextrose (YPD) medium to an OD at 620 nm (OD620) equivalent to that of lag phase. YPD medium was supplemented with an appropriate concentration of calcium, depending on the transformed strain. The optimal calcium concentration for the PfATP6-expressing strain was 22 mM, and that for the SERCA1a-expressing strain was […]. The optimal calcium concentration was periodically monitored and, if necessary, adjusted using a calcium concentration range of 10 to 30 mM. A final volume of 200 μL of the yeast culture was added to each well of a 96-well plate, with 5 technical replicates included per inhibitor. All inhibitors were dissolved in dimethyl sulfoxide (DMSO) unless otherwise stated. […] The yeast growth was estimated from the absorbance at 620 nm in a Tecan plate reader. […] The data collected were analyzed using GraphPad Prism v9.0 (GraphPad software, San Diego, CA, U.S.A).

K667Δpdr5::pUGpd = test: Yeast whole-cell growth inhibition, vector-only control K667Δpdr5::pUGpd; assay type: cell-based, Saccharomyces cerevisiae; settings: compound screen
Description: The screening assay used here was developed from the protocol used by Pulcini et al. ([13]). A single colony of the yeast strain to be screened was picked and grown in 5 mL of selective medium until stationary phase was reached. The culture was diluted 100-fold in ampicillin-supplemented yeast extract-peptone-dextrose (YPD) medium to an OD at 620 nm (OD620) equivalent to that of lag phase. YPD medium was supplemented with an appropriate concentration of calcium, depending on the transformed strain. The optimal calcium concentration for the PfATP6-expressing strain was 22 mM, and that for the SERCA1a-expressing strain was […]. The optimal calcium concentration was periodically monitored and, if necessary, adjusted using a calcium concentration range of 10 to 30 mM. A final volume of 200 μL of the yeast culture was added to each well of a 96-well plate, with 5 technical replicates included per inhibitor. All inhibitors were dissolved in dimethyl sulfoxide (DMSO) unless otherwise stated. Stock solutions of each inhibitor were diluted 100-fold in each well to give the desired final concentration. […] The 96-well plates were incubated at 30°C for 42 h. The yeast growth was estimated from the absorbance at 620 nm in a Tecan plate reader. […] The data collected were analyzed using GraphPad Prism v9.0 (GraphPad software, San Diego, CA, U.S.A).

PfATP6 = PfATP6 (Plasmodium falciparum, UniProt Q08853); test: cell-based; assay type: cell-based; parameters: pUGpd containing the yeast-optimized coding region of PfATP6 from Plasmodium falciparum; expressed in transfected cells; host or cells: Saccharomyces cerevisiae K667 and K667Δpdr5::HIS; settings: growth inhibition, K667Δpdr5[PfATP6]
Sequence of PfATP6 (Q08853 whole entry): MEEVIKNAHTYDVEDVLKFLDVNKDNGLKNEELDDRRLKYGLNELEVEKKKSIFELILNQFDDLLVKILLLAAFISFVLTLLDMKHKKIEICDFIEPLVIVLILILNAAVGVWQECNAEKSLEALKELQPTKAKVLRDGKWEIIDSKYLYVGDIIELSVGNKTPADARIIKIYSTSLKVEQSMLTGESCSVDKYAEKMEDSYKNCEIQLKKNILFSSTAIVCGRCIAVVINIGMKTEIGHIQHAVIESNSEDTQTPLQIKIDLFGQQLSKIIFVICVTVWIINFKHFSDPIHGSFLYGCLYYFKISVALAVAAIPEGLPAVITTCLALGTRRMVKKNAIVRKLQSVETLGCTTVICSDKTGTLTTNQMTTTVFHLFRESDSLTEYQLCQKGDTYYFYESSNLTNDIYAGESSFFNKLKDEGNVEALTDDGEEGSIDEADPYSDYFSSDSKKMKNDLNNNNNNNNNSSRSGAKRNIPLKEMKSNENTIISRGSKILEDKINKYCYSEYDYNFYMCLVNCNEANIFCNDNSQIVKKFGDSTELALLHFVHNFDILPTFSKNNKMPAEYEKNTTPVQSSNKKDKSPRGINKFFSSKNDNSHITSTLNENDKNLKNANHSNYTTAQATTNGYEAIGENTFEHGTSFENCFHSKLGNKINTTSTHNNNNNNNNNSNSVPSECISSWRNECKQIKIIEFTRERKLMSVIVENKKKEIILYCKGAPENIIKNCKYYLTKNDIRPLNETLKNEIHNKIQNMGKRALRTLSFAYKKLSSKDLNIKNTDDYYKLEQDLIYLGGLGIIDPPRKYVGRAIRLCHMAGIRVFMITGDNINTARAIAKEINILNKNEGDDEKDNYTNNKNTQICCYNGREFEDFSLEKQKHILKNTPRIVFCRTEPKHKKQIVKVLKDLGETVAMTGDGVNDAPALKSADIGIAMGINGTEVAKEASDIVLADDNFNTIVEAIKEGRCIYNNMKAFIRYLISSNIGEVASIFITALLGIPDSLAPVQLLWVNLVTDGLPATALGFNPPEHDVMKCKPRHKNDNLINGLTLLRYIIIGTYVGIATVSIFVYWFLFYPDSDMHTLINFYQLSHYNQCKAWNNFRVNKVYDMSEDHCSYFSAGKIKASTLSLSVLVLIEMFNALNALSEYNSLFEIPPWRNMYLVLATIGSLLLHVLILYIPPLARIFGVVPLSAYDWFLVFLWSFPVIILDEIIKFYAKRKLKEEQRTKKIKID
Description: The screening assay used here was developed from the protocol used by Pulcini et al. ([13]). A single colony of the yeast strain to be screened was picked and grown in 5 mL of selective medium until stationary phase was reached. The culture was diluted 100-fold in ampicillin-supplemented yeast extract-peptone-dextrose (YPD) medium to an OD at 620 nm (OD620) equivalent to that of lag phase. YPD medium was supplemented with an appropriate concentration of calcium, depending on the transformed strain. […] The optimal calcium concentration was periodically monitored and, if necessary, adjusted using a calcium concentration range of 10 to 30 mM. A final volume of 200 μL of the yeast culture was added to each well of a 96-well plate, with 5 technical replicates included per inhibitor. All inhibitors were dissolved in dimethyl sulfoxide (DMSO) unless otherwise stated. […] The 96-well plates were incubated at 30°C for 42 h. The yeast growth was estimated from the absorbance at 620 nm in a Tecan plate reader. Growth was normalized with the no-drug control to present data as percent growth. The data collected were analyzed using GraphPad Prism v9.0 (GraphPad software, San Diego, CA, U.S.A).

SERCA1a [2] = target: T1, SERCA1a; test: Yeast whole-cell growth inhibition assay, K667::SERCA1a; assay type: cell-based, rabbit; parameters: containing the SERCA1a coding region from rabbit skeletal fast-twitch muscle; expressed in transfected cells; host or cells: Saccharomyces cerevisiae K667 and K667Δpdr5::HIS; settings: measured at 40 h
Description: as §1
The screening assay used here was developed from the protocol used by Pulcini et al. ([13]). […] The optimal calcium concentration was periodically monitored and, if necessary, adjusted using a calcium concentration range of 10 to 30 mM. […] The yeast growth was estimated from the absorbance at 620 nm in a Tecan plate reader. […] The data collected were analyzed using GraphPad Prism v9.0 (GraphPad software, San Diego, CA, U.S.A).

E255LSERCA1a = target: T2, E255LSERCA1a (Oryctolagus cuniculus, UniProt P04191, E255L); test: Yeast whole-cell growth inhibition assay, K667Δpdr5[SERCA1a]255L; assay type: cell-based, rabbit
T2 construct: expressed in transfected cells; host or cells: Saccharomyces cerevisiae K667Δpdr5
T2 sequence (P04191 other isoform, or with tags, fused parts or gaps E255L): as the sequence (P04191 other isoform, or with tags, fused parts or gaps) above, with E255L counted along it
Description: The E255L mutation was introduced into SERCA1a using the following primers: forward, 5′-[…]-3′; reverse, 5′-[…]-3′. Site-directed mutagenesis was performed using the Agilent Quikchange Lightning site-directed mutagenesis kit, following the manufacturer’s instructions. Mutants were screened by Sanger sequencing (Eurofins, UK).
as §2, with “mM.” for “mM. A final volume of 200 μL of the yeast culture was added to each well of a 96-well plate, with 5 technical replicates included per inhibitor. All inhibitors were dissolved in dimethyl sulfoxide (DMSO) unless otherwise stated.”

## O=C(Nc1cccc(C(F)(F)F)c1)c1cc(Cl)ccc1O [MMV665807]
SERCA1a [1]; compound screen
  inhibition of control strain K667Δpdr5::SERCA1a: almost no inhibition
K667Δpdr5::pUGpd
  inhibition of control strain K667Δpdr5::pUGpd: almost no inhibition
PfATP6
  inhibition of PfATP6 in compound screen: highest reproducible potency

## C/C=C(/C)C(=O)O[C@H]1C(C)=C2[C@H]([C@@H]1OC(=O)CCCCCCC)[C@@](C)(OC(C)=O)C[C@H](OC(=O)CCC)[C@@]1(O)[C@H]2OC(=O)[C@@]1(C)O [thapsigargin]
SERCA1a [2]
  IC50: 335 ± 67.5 nM
SERCA1a [1]
  fold lower IC50 in K667DPDR5::SERCA1a than in K667::SERCA1a: > 2 fold
SERCA1a [1]; K667DPDR5::SERCA1a (wild-type E255), measured at 40 h
  IC50: 142 ± 43.9 nM
E255LSERCA1a
  IC50: 794 ± 247 nM
  fold less sensitive, E255LSERCA1a versus wild-type: 5 fold
